Measurements published in patent US8518957B2, “Methanocarba adenosine derivatives, pharmaceutical compositions, and method of reducing intraocular pressure” (The United States of America, as represented by the …, priority 2009, dated 2013).
Read-outs that look alike come from different tables or passages of the source.

Columns and labels:
human A1 AR [1] = molecular target: T1, human A1 AR (Homo sapiens, UniProt P30542); details: cited from earlier work
T1 construct: expressed in transfected cells
T1 sequence (P30542 1-326): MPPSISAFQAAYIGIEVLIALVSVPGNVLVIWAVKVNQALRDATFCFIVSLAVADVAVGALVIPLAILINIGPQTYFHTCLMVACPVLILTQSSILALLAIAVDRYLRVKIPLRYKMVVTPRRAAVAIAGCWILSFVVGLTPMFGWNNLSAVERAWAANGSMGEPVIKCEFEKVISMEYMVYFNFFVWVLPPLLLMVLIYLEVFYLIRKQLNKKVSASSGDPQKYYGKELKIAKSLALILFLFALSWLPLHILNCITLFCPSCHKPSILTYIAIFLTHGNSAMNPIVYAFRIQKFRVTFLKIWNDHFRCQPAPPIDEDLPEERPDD

hA2AAR [2] = molecular target: T2, hA2AAR (Homo sapiens, UniProt P29274); details: cited from earlier work
T2 construct: expressed in transfected cells

human A3AR [3] = molecular target: T3, human A3AR (Homo sapiens, UniProt P0DMS8); details: at 10 μM, relative to NECA 10 μM; values from Tosh et al.; cited from earlier work
T3 construct: expressed in transfected cells
T3 sequence (P0DMS8 1-318): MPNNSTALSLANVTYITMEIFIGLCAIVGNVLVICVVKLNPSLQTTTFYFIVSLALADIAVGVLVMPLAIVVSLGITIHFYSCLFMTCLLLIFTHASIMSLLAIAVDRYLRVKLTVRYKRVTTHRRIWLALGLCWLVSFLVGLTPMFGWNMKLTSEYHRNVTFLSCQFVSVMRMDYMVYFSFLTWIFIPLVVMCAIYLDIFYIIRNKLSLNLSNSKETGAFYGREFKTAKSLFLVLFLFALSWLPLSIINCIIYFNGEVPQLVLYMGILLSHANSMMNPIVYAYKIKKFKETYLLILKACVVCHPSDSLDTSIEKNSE

human A3AR [4] = molecular target: T3, human A3AR; test: Radioligand binding at human A3 AR ([125I]I-AB-MECA, membranes of CHO cells)
Method: Test compounds were prepared as 5 mM stock solutions in DMSO and stored frozen at −20° C.
(§1) CHO cells stably expressing the recombinant hA1 and hA3Rs, and HEK-293 cells stably expressing the hA2AAR were cultured in Dulbecco's modified Eagle medium (DMEM) and F12 (1:1) supplemented with 10% fetal bovine serum, 100 units/mL penicillin, 100 μg/mL streptomycin, and […] glutamine. In addition, 800 μg/mL geneticin was added to the A2A media, while 500 μg/mL hygromycin was added to the A1 and A3 media. After harvesting, cells were homogenized and suspended in PBS. Cells were then centrifuged at 240 g for 5 min, and the pellet was resuspended in 50 mM Tris-HCl buffer (pH 7.5) containing 10 mM MgCl2. The suspension was homogenized and was then ultra-centrifuged at 14,330 g for 30 min at 4° C. The resultant pellets were resuspended in Tris buffer, incubated with adenosine deaminase (3 units/mL) for 30 min at 37° C. The suspension was homogenized with an electric homogenizer for 10 sec, pipetted into 1 mL vials and then stored at −80° C. until the binding experiments were conducted. The protein concentration was measured using the BCA Protein Assay Kit from Pierce Biotechnology, Inc. (Rockford, Ill.).
Into each tube in the binding assay was added 50 μL of increasing concentrations of the test ligand in Tris-HCl buffer (50 mM, pH 7.5) containing 10 mM MgCl2, 50 μl, of the appropriate agonist radioligand, and finally 100 μL of membrane suspension. […] For the A2AAR (20 μg/tube) the radioligand used was [^3H]37 (10 nM). […] Nonspecific binding was determined using a final concentration of 10 μM unlabeled 36 diluted with the buffer. The mixtures were incubated at 25° C. for 60 min in a shaking water bath. Binding reactions were terminated by filtration through Brandel GF/B filters under a reduced pressure using a M-24 cell harvester (Brandel, Gaithersburg, Md.). Filters were washed three times with 3 mL of 50 mM ice-cold Tris-HCl buffer (pH 7.5). […] Filters for A3AR binding were counted using a Packard Cobra II γ-counter. The Ki values were determined using GraphPad Prism for all assays.
Test compounds were prepared as 5-mM stock solutions in DMSO and stored frozen at −20° C.
(§2) Chinese hamster ovary (CHO) cells were generated by stably expressing the recombinant hA1 and hA3 and human embryonic kidney (HEK) 293 cells stably expressing the hA2AAR in DMEM and F12 (1:1) supplemented with 10% fetal bovine serum, 100 units/mL penicillin, 100 μg/mL streptomycin, and 2 μmol/mL glutamine. 800 μg/mL Geneticin were added to the A2A media and 500 μg/mL hygromycin to the A1 and A3 media. After harvesting the cells, they were homogenized with an electric homogenizer for 10 sec, pipetted them into 1-mL vials, and then stored them at −80° C. until the binding experiments were conducted. The protein concentration was measured with a BCA Protein Assay Kit from Pierce Biotechnology (Rockford, Ill.).
Each tube in the binding assay contained 50 μL of increasing concentrations of the test ligand in Tris-HCl buffer (50 mM, pH 7.5) containing 10 mM MgCl2, 50 μL of the appropriate agonist radioligand, and 100 μL membrane suspension, added sequentially. […] For the A2AAR (20 μg/tube), the radioligand [^3H]CGS21680 was used (−10 nM). […] The mixtures were incubated at 25° C. for 60 min in a shaking water bath. The binding reactions were terminated by filtration through Brandel GF/B filters under a reduced pressure with a M-24 cell harvester (Brandel, Gaithersburg, Md.). Filters were washed three times with 3 mL 50-mM ice-cold Tris-HCl buffer (pH 7.5). […] The filters were counted for A3AR binding with a Packard Cobra II γ-counter (PerkinElmer). The Ki values were determined with GraphPad Prism for all assays.

hA2AAR [5] = molecular target: T2, hA2AAR; test: Radioligand binding at human A2A AR ([3H]CGS21680, membranes of HEK-293 cells)
Method: (§3) [^3H](2-[p-(2-Carboxyethyl)phenyl-ethylamino]-5′-N-ethylcarboxamido-adenosine) (37, [^3H]CGS21680, 40.5 Ci/mmol) and [^125I]N^6-(4-amino-3-iodobenzyl)adenosine-5′-N-methyluronamide (38, [^125I]I-AB-MECA, 2200 Ci/mmol) were purchased from Perkin-Elmer Life and Analytical Science (Boston, Mass.). Test compounds were prepared as 5 mM stock solutions in DMSO and stored frozen at −20° C.
as §1
(§4) Into each tube in the binding assay was added 50 μL of increasing concentrations of the test ligand in Tris-HCl buffer (50 mM, pH 7.5) containing 10 mM MgCl2, 50 μl, of the appropriate agonist radioligand, and finally 100 μL of membrane suspension. For the A1AR (22 μg of protein/tube) the radioligand used was [^3H]36 (final concentration of 3.5 nM). For the A2AAR (20 μg/tube) the radioligand used was [^3H]37 (10 nM). For the A3AR (21 μg/tube) the radioligand used was [^125I]38 (0.34 nM). Nonspecific binding was determined using a final concentration of 10 μM unlabeled 36 diluted with the buffer. The mixtures were incubated at 25° C. for 60 min in a shaking water bath. Binding reactions were terminated by filtration through Brandel GF/B filters under a reduced pressure using a M-24 cell harvester (Brandel, Gaithersburg, Md.). Filters were washed three times with 3 mL of 50 mM ice-cold Tris-HCl buffer (pH 7.5). Filters for A1 and A2AAR binding were placed in scintillation vials containing 5 mL of Hydrofluor scintillation buffer and counted using a Perkin Elmer Liquid Scintillation Analyzer (Tri-Carb 2810TR). Filters for A3AR binding were counted using a Packard Cobra II γ-counter. The Ki values were determined using GraphPad Prism for all assays.
(§5) [^3H](2-[p-(2-carboxyethyl)phenyl-ethylamino]-5′-N-ethylcarboxamido-adenosine) ([^3H]CGS21680, 40.5 Ci/mmol) and [^125I]N^6-(4-amino-3-iodobenzyl)adenosine-5′-N-methyluronamide ([^125I]I-AB-MECA, 2200 Ci/mmol) were purchased from PerkinElmer. Test compounds were prepared as 5-mM stock solutions in DMSO and stored frozen at −20° C.
as §2, with “Ill.). […]” for “Ill.).”

human A3AR [6] = molecular target: T3, human A3AR; test: Cyclic AMP accumulation assay: inhibition of forskolin-stimulated cyclic AMP production in AR-transfected CHO cells; assay type: cell-based; details: at 10 μM, in comparison to the maximal effect of full agonist NECA at 10 μM
Method: Intracellular cyclic AMP levels were measured with a competitive protein binding method. […] CHO cells that expressed the recombinant human A3AR were harvested by trypsinization. After centrifugation and resuspended in medium, cells were planted in 24-well plates in 1.0 mL medium. After 24 h, the medium was removed and cells were washed three times with 1 mL DMEM, containing 50 mM HEPES, pH 7.4. […] After 45 min forskolin (10 μM) was added to the medium, and incubation was continued for an additional 15 min. […] The cell lysate was resuspended and stored at −20° C. For determination of cyclic AMP production, protein kinase A (PKA) was incubated with [^3H]cyclic AMP (2 nM) in K2HPO4/EDTA buffer (K2HPO4, 150 mM; EDTA, 10 mM), 20 μL of the cell lysate, and 30 μL 0.1 M HCl or 50 μL of cyclic AMP solution (0-16 pmol/200 μL for standard curve). Bound radioactivity was separated by rapid filtration through Whatman GF/C filters and washed once with cold buffer. Bound radioactivity was measured by liquid scintillation spectrometry.
Bound radioactivity was separated by rapid filtration through Whatman GF/C filters and washed the filters once with cold buffer. Bound radioactivity was measured with liquid scintillation spectrometry.

human A3AR [7] = molecular target: T3, human A3AR; details: model compounds; values from Tosh et al. and Melman et al.; read-out: Affinity (Ki, nM), A3; cited from earlier work
human A1 AR [8] = molecular target: T1, human A1 AR; test: Radioligand binding at human A1 AR ([3H]NECA, membranes of CHO cells)
Method: as §3, §1, §4, §5
as §2, with “Ill.). […]” for “Ill.).”

[9] = inhibition of radioligand binding at 10 μM, values from Tosh et al.
[10] = at 10 μM, model compounds, values from Tosh et al. and Melman et al.
[11] = Example 7, agonist radioligand [125I]47, read-out: AR Affinity Ki, nM, A3

T2 sequence (P29274 whole entry): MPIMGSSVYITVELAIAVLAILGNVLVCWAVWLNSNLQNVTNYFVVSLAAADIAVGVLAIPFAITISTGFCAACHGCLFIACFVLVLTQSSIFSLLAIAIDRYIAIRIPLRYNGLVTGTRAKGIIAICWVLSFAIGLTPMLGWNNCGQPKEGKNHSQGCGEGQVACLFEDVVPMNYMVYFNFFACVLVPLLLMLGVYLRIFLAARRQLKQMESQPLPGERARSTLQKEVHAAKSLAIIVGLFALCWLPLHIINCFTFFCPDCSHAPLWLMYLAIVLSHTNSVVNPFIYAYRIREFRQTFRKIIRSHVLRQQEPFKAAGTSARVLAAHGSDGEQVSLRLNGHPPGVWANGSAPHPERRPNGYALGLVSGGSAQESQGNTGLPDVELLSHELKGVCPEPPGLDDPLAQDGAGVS

Ki (human A3AR [4]; [11]) | inhibition at 10 µM (hA2AAR [5]) | inhibition at 10 µM (human A1 AR [8]) | SMILES | further results
– | – | – | CNC(=O)C12CC1C(n1cnc3c(NCc4cccc(Cl)c4)nc(C#CCCC(=O)NCCNC(=O)CCCCC4SCC5NC(=O)NC54)nc31)C(O)C2O (stereo not shown) [Compound 2] | % inhibition, A1 (human A1 AR [1]; [9]): (1 ± 1%); % inhibition, A2A (hA2AAR [2]; [9]): (51 ± 2%); % Inhibition of cAMP formation at hA3 AR (human A3AR [3]): 84.5 ± 12.0%
– | – | – | C#CCCCC#Cc1nc(NCc2cccc(Cl)c2)c2ncn(C3C(O)C(O)C4(C(=O)NC)CC34)c2n1 (stereo not drawn) [Compound 8, (1′S, 2′R, 3′S, 4′S, 5′S)-4′-[6-(3-Chlorobenzylamino)-2-(1,6-heptadiynyl)-9H-purin-9-yl]-2′,3′-dihydroxybicyclo[3.1.0]hexane-1′-carboxylic acid N-methylamide] | Ki (human A3AR [4]; [125I]38, CHO cells, read-out: Affinity (Ki, nM), A3): 23.6 ± 3.9 nM; Ki (hA2AAR [5]; [3H]37, HEK293 cells, read-out: Affinity (Ki, nM), A2A): 4330 ± 500 nM; % Inhibition of cAMP formation at hA3 AR (human A3AR [6]): 18.3 ± 7.6%
– | – | – | CCCC#Cc1nc(NCc2cccc(Cl)c2)c2ncn(C3C(O)C(O)C4(C(=O)NC)CC34)c2n1 (stereo not shown) [Compound 104b] | % inhibition, A2A (hA2AAR [2]; [10]): (80%)
– | – | – | CNC(=O)C12CC1C(n1cnc3c(NCc4cccc(C#CCCCCC(=O)NCCNC(C)=O)c4)nc(Cl)nc31)C(O)C2O (stereo not shown) [Compound 104c] | Ki (human A1 AR [1]; model compounds, values from Tosh et al. and Melman et al., read-out: Affinity (Ki, nM), A1): 181 nM; Ki (human A3AR [7]): 228 nM; % inhibition, A2A (hA2AAR [2]; [10]): (80%)
38.1 ± 14.4 nM | 4.9% | 38.4% | CNC(=O)[C@@]12C[C@@H]1[C@@H](n1cnc3c(NCc4cn(C56CC7CC(CC(C7)C5)C6)nn4)nc(Cl)nc31)[C@H](O)[C@@H]2O [Compound 220, (1S,2R,3S,4R,5S)-4-(2-Chloro-6-((1-(adamantyl)-1H-1,2,3-triazol-4-yl)methylamino)-9H-purin-9-yl)-2,3-dihydroxy-N-methylbicyclo[3.1.0]hexane-1-carboxamide] | –
302 ± 26 nM | 28.3% | – | C#CCNc1nc(Cl)nc2c1ncn2[C@H]1[C@H](O)[C@H](O)[C@@H]2C[C@@H]21 [Compound 222, (1R,2R,3S,4R,5S)-4-(2-Chloro-6-(prop-2-ynylamino)-9H-purin-9-yl) bicycle[3.1.0]hexane-2,3-diol] | Ki (human A1 AR [8]; Example 7, agonist radioligand [3H]45, read-out: AR Affinity Ki, nM, A1): 5870 ± 830 nM
388 ± 170 nM | 19.2% | 44.7% | O=[N+]([O-])c1cc(-n2cc(CNc3nc(Cl)nc4c3ncn4[C@H]3[C@H](O)[C@H](O)[C@@H]4C[C@@H]43)nn2)ccc1F [Compound 223] | –
2190 ± 160 nM | 22.5% | 38.6% | O[C@@H]1[C@H](O)[C@@H]2C[C@@H]2[C@H]1n1cnc2c(NCc3cn(C45CC6CC(CC(C6)C4)C5)nn3)nc(Cl)nc21 [Compound 224] | –
